In US5273979A, “C-31 desmethyl FR-900520 cyclic hemiketal immunosuppressant agent” (Merck & Co., Inc., priority 1991, dated 1993):
“Also recorded” adds a separate entry of the source. Where two headings read alike, the source gives them in different places.

How the values were obtained:
[1] = tested on: Splenic T-cells stimulated with ionomycin + PMA; assay: T-cell proliferation assay (ionomycin plus PMA induced T-cell stimulation assay); assay type: cell-based, mouse
Protocol: Cells were pelleted by centrifugation at 1500 rpm for 8 minutes. Contaminating red cells were removed by treating the pellet with ammonium chloride lysing buffer (GIBCO) for 2 minutes at 4° C. Cold medium was added and cells were again centrifuged at 1500 rpm for 8 minutes. T lymphocytes were then isolated by separation of the cell suspension on nylon wool columns as follows: Nylon wool columns were prepared by packing approximately 4 grams of washed and dried nylon wool into 20 ml plastic syringes. The columns were sterilized by autoclaving at 250° F. for 30 minutes. Nylon wool columns were wetted with warm (37° C.) culture medium and rinsed with the same medium. Washed spleen cells resuspended in warm medium were slowly applied to the nylon wool. The columns were then incubated in an upright position at 37° C. for 1 hour. Non-adherent T lymphocytes were eluted from the columns with warm culture medium and the cell suspensions were spun as above.
The cell suspension was immediately distributed into 96 well flat-bottom microculture plates (Costar) at 200 μl/well. […] The proliferation of T lymphocytes was assessed by measurement of tritiated thymidine incorporation. After 44 hours of culturing, the cells were pulse-labelled with 2 μCi/well of tritiated thymidine (NEN, Cambridge, Mass.). After another 4 hours of incubation, cultures were harvested on glass fiber filters using a multiple sample harvester. Radioactivity of filter discs corresponding to individual wells was measured by standard liquid scintillation counting methods (Betacounter). Mean counts per minute of replicate wells were calculated and the results expressed as percent inhibition of tritiated thymidine uptake (proliferation) as follows: [formula]

[2] = target: T1, 31-O-desmethylimmunomycin O-methyltransferase (DIMT) (Streptomyces hygroscopicus, UniProt Q9KID5); assay: S-adenosyl-L-methionine: 31-O-desmethylimmunomycin O-methyltransferase (DIMT) assay; assay type: biochemical, Streptomyces hygroscopicus var. ascomyceticus
T1 construct: cell-free extract, DEAE-Sepharose pool, or second MonoQ preparation (kinetics)
T1 sequence (Q9KID5 1-260): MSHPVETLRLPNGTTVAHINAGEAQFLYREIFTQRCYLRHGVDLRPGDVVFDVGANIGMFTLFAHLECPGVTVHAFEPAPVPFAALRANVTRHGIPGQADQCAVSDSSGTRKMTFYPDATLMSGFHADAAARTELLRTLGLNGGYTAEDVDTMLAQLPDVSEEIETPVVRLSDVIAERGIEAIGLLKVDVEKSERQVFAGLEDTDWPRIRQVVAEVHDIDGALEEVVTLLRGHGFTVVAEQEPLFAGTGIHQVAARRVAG
Protocol: The assay was carried out in 1 ml. mixture containing 0.025 mM 31-desmethylimmunomycin, 1 mM MgSO4 and different quantities of the enzyme source in 50 mM phosphate buffer, pH 7.5. Reaction was initiated by the addition of 1 nmole of ^14 C-SAM (S-adenosyl-L-[methyl-^14 C] methionine with the specific activity of 46 mCi/mmole. Incubation of the complete mixture was carried out at 34° C. for 20 minutes and the reaction was terminated by the addition of ethyl acetate. Product of the reaction was extracted with 2 ml of ethyl acetate and 1 ml of the extract was used for TLC and HPLC analysis. For the analysis of the radioactive reaction product (immunomycin), the ethyl acetate extract was spiked with the standard immunomycin and subjected to the TLC with a plate having plastic support. The plastic sheet was developed in chloroform:methanol (9:1) and area showing standard immunomycin under UV-light was cut and the radioactivity in the cut-strip was measured. The amount of the product formed was calculated from the measured radioactivity. For the HPLC analysis of the product of the enzyme reaction, several enzymatic reaction mixtures were pooled and the extract was subjected to the TLC analysis as above. The area on the silica gel plate showing the band having an Rf value identical with the standard immunomycin was scraped and eluted with ethyl acetate. The ethyl acetate extract was washed with water, dried under nitrogen and the residue was subjected to the HPLC analysis on Partisil 5-ODS-3 column with acetonitrile:water:phosphoric acid (65:35:0.1) as the eluting solvent. One milliliter fractions were collected and a portion of each fraction was examined for the radioactivity.
Examination of the optimal temperature, pH and metal requirement of the DIMT activity was carried out on the enzyme preparation obtained from DEAE-Sepharose column. For kinetic analysis, a preparation which had been purified through a second MonoQ column chromatography was utilized.

| SMILES | Inhibition of T-cell activation (result in words) [1] | Inhibition of DIMT activity (result in words) [2] | Inhibition of DIMT activity (result in words) ([2]; crude extract) | other results |
| --- | --- | --- | --- | --- |
| CC[C@@H]1C=C2COC1(O)C[C@H](O)[C@@H](C)[C@@H](/C(C)=C/[C@@H]1CC[C@@H](O)[C@H](OC)C1)OC(=O)[C@@H]1CCCCN1C(=O)C(=O)[C@]1(O)O[C@H]([C@@H](OC)C[C@@H](C)C2)[C@@H](OC)C[C@H]1C [Compound II] | positive inhibition of T-cell activation; also recorded: positive results |  |  |  |
| CC[C@@H]1C=C2COC1(O)C[C@H](O)[C@@H](C)[C@@H](/C(C)=C/[C@@H]1CC[C@@H](O)[C@H](O)C1)OC(=O)[C@@H]1CCCCN1C(=O)C(=O)[C@]1(O)O[C@H]([C@@H](OC)C[C@@H](C)C2)[C@@H](OC)C[C@H]1C [Compound I] | positive inhibition of T-cell activation |  |  | Activity versus the FK-506 immunosuppressive activity (result in words) [1]: antagonist activity; Reversal of inhibition of T-cell proliferation by IL2 ([1]; 50 units/ml recombinant IL2 added at the initiation of culture): reversed; IC50 ([1]; Mus musculus, T-cell, general range, read-out: IC50, generally in the range): 10 to 18 nM |
| O=C(O)CN(CCN(CC(=O)O)CC(=O)O)CC(=O)O [EDTA] |  | major inhibition | completely inhibited |  |
| Nc1ncnc2c1ncn2[C@@H]1O[C@H](CSCC[C@H](N)C(=O)O)[C@@H](O)[C@H]1O [S-adenosyl-homocysteine (SAH), S-adenosyl-homocysteine] |  | major inhibition |  |  |
| N.N.O=S(=O)(O)O [ammonium sulfate] |  |  | inhibited |  |
| Nc1ncnc2c1ncn2[C@@H]1O[C@H](C[C@@H](N)CC[C@H](N)C(=O)O)[C@@H](O)[C@H]1O [sinefungin] |  | major inhibition |  |  |
